We go through three molecules from patent US5190975A, “Indan derivatives used for treating thromboses or asthma” (Tanabe Seiyaku Co., Ltd., priority 1987, dated 1993).

For one assay, the system named is TxA2. The note with it: Thrombosis Research, 35, 379-395, 1984; cited from earlier work.
In assay [1] the test system is arachidonic acid-induced pulmonary embolism. In words: Inhibiting effect on arachidonic acid-induced pulmonary embolism (in vivo). Details: species or system ddy-male mice. The note with it: Mus musculus; dose required to shorten the recovery time by at least 15% as compared with the control group; oral, 3 hours before arachidonic acid 125 mg/kg, mice. Here is the method: Inhibiting effect on arachidonic acid-induced pulmonary embolism (in vivo):
A test compound in an aqueous carboxymethylcellulose solution (20 ml/kg) was orally administered to ddy-male mice fasted overnight. Three hours later, arachidonic acid (125 mg/kg) was injected to the tail vein of mice to induce pulmonary embolism, and the recovery time (minute) of locomotive activity of the mice was compared with that of a control group of mice to which a 0.25% aqueous CMC solution was administered instead of the test compound solution. The inhibiting effect of each test compound on arachidonic acid-induced pulmonary embolism was estimated in terms of the dose required to shorten the recovery time by at least 15% as compared with the control group.

As to `O=C(O)COc1ccc(CCNS(=O)(=O)c2ccccc2)cc1` [Control, 4-(2-Benzensulfonylaminoethyl)phenoxyacetic acid], in the assay on TxA2, the TxA2-antagonistic activity entry was “has TxA2 -antagonistic activity”. Moreover, the ED15 in assay [1] stood at 30 mg/kg.

As to `O=C(O)CCNC(=O)Cc1ccc2c(c1)CC(NS(=O)(=O)c1ccc(Cl)cc1)C2` (stereo not shown) [Example 1], the ED15 in assay [1] is 0.03 mg/kg.

`O=C(O)CCCNC(=O)Cc1ccc2c(c1)CC(NS(=O)(=O)c1ccc(Cl)cc1)C2` (stereo not shown) [Example 2] displayed an ED15 in assay [1] of 0.03 mg/kg.
